Measurements: PMC2556205 (Journal of medicinal chemistry, 2008)

Legend:
[1] = molecular target: T1, purified recombinant rat FAAH (Rattus norvegicus, UniProt P97612); assay: FAAH inhibition assay, 14C-oleamide hydrolysis, Dixon plot; assay type: biochemical; conditions: for FAAH inhibition (in words): pH 9 assay conditions
T1 sequence (P97612 30-579 limits assumed): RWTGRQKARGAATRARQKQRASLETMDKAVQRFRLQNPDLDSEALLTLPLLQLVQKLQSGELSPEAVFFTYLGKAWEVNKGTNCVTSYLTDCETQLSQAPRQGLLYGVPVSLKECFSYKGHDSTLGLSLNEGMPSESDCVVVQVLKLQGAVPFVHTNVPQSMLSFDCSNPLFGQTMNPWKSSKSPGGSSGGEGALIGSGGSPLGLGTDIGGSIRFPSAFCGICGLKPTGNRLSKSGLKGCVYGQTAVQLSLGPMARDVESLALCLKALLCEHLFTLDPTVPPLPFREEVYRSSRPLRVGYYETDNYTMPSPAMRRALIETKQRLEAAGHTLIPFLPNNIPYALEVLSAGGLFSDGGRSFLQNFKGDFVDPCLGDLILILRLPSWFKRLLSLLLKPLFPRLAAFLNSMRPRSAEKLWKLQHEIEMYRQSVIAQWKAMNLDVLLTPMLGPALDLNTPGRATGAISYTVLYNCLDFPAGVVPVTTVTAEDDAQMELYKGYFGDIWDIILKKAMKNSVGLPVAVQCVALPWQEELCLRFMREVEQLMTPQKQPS

[2] = Cerep assay profiling; cited from earlier work
[3] = system: cannabinoid (CB1) receptor; conditions: cited from earlier work
[4] = system: cannabinoid (CB2) receptor; conditions: cited from earlier work
[5] = system: vanilloid (TRP) receptors; conditions: cited from earlier work
P450 3A4 = conditions: cited from earlier work
P450 2C9 = conditions: cited from earlier work
P450 2D6 = conditions: cited from earlier work
[6] = system: human ether-a-go-go related gene (hERG); conditions: cited from earlier work
tail flick assay = conditions: 10–20 mg/kg, i.p.; cited from earlier work
hot plate assay = conditions: 10–20 mg/kg, i.p.; cited from earlier work
[7] = system: formalin test of noxious chemical pain; conditions: 1st and 2nd phase; 10–20 mg/kg, i.p.; cited from earlier work
[8] = system: mild thermal injury (MTI) model of peripheral pain; conditions: 10–20 mg/kg, i.p.; cited from earlier work
[9] = system: spinal nerve ligation (SNL) model of neuropathic pain; conditions: 10–20 mg/kg, i.p.; cited from earlier work
FAAH knockout mice = conditions: cited from earlier work
[10] = system: endogenous anandamide levels; conditions: cited from earlier work
[11] = molecular target: T1, purified recombinant rat FAAH; conditions: cited from earlier work

## Cn1nnc(C(=O)CCCCCCc2ccccc2)n1 [19a]
[1]
  FAAH inhibition (in words): displayed FAAH inhibition at levels consistent with this series

## O=C(CCCCCCc1ccccc1)c1cnc(-c2ccccn2)o1 [compound 6]
[1]; oxazole isomer, location of the oxazole nitrogen atom switched, compared with 2
  loss of FAAH inhibition: > 4000 fold

## O=C(CCCCCCc1ccccc1)c1ncc(-c2ccccn2)o1 [compound 2]
[2]
  offsite target activity: lack significant offsite target activity
[3]
  CB1 receptor binding: does not bind
[4]
  CB2 receptor binding: does not bind
[5]
  vanilloid (TRP) receptor binding: does not bind
P450 3A4
  inhibition of P450 3A4: does not significantly inhibit
P450 2C9
  inhibition of P450 2C9: does not significantly inhibit
P450 2D6
  inhibition of P450 2D6: does not significantly inhibit
[6]
  inhibition of hERG: does not significantly inhibit
Tail flick assay
  analgesic activity, tail flick assay: analgesic activity
Hot plate assay
  analgesic activity, hot plate assay: analgesic activity
[7]
  analgesic activity, formalin test: analgesic activity
[8]
  analgesic activity, MTI model: analgesic activity
[9]
  analgesic activity, SNL model: analgesic activity
FAAH knockout mice
  analgesia in FAAH knockout mice: ineffective at promoting analgesia
[10]
  endogenous anandamide levels: increases endogenous anandamide levels
[11]
  mode of inhibition (Lineweaver–Burk analysis): reversible, competitive inhibition

## Cn1nnnc1C(=O)CCCCCCc1ccccc1 [19b]
[1]
  FAAH inhibition (in words): displayed FAAH inhibition at levels consistent with this series
